Measured values: ChEMBL document CHEMBL1145156, “Identification of novel extracellular signal-regulated kinase docking domain inhibitors” (J Med Chem, 2005)

Columns and labels:
[1] = tested on: HeLa; test: Inhibitory concentration against HeLa cell colony formation; Range is 15-20 uM; format: functional, cell-based; conditions: Homo sapiens
[2] = tested on: A549; test: Inhibitory concentration against growth of A549 lung carcinoma cell; format: functional, cell-based; conditions: Homo sapiens
[3] = molecular target: Mitogen-activated protein kinase 1 (Homo sapiens, UniProt P28482); test: Dissociation constant for ERK2 kinase
Sequence of Mitogen-activated protein kinase 1 (P28482 whole entry): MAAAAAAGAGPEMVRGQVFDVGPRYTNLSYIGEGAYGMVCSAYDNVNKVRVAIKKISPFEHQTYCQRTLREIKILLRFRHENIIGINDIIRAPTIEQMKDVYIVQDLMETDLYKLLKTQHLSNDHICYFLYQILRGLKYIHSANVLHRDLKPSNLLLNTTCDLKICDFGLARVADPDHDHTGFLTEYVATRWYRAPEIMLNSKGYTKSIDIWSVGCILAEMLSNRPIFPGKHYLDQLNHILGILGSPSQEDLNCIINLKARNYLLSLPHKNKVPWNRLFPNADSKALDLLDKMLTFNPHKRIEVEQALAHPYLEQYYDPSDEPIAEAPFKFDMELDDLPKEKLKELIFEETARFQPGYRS

An IC50 [1] of 20 µM and an IC50 [2] of 15 µM were found for `O=C(CCN1CCN(C/C=C/c2ccccc2)CC1)Nc1ccc(Cl)cc1` in this work.

An IC50 [1] of 20 µM, a Kd [3] of 5 µM and an IC50 [2] of 25 µM were found for `CCOc1ccc(/C=C2\SC(=O)N(CCN)C2=O)cc1` in this work.

A Kd [3] of 5 µM was found for `O=C(CSc1nc2ccccc2o1)Nc1ccc(-n2cnnn2)cc1` in this work.
